Where “and” joins values, the source holds several entries; their conditions need not be identical. Equal values may be shown once. Read-outs that look alike come from different tables or passages of the source.
Experiments:
T Cell Malignancies = experiment: Cellular viability, T cell malignancies; assay type: cell-based; conditions: N = 7
Excerpt: (§1) Cellular viability and pAkt activity were used to determine effects of Compounds A, C, and D in solid tumor, B-cell malignancies, and T-cell malignancies.

LN229 = experiment: Viability (AlamarBlue), LN229; assay type: cell-based; conditions: Homo sapiens, LN-229; LN229, Glioma
Experimental: (§2) For primary T-ALL samples, cell viability was determined using the BD Cell Viability kit (BD Biosciences) and fluorescent counting beads as previously described in Armstrong, F. et al., NOTCH is a key regulator of human T-cell acute leukemia initiating cell activity, Blood 113, 1730-1740 (2009). Cells were plated with MS5-DL1 stroma cells. After 72 hours following treatment, cells were harvested and stained with an APC-conjugated anti-human CD45 according to the manufacturer's instructions. For solid tumor cell lines, cellular viability was determined using the AlamarBlue kit (Invitrogen). About 10,000 cells in 100 μL of media containing 10% FBS were aliquoted into individual wells of a 96-well plate and treated with vehicle (DMSO) or compound in triplicate for 24 hours. Ten μL of AlamarBlue reagent was added to each well and incubated for 4 hours at 37° C. with 5% CO2. Fluorescence was measured with an excitation wavelength at 530 to 560 nm and emission wavelength at 590 nm using Spectramax M5 plate reader (Molecular Devices, Sunnyvale, Calif.).

U87MG = experiment: pAkt pathway inhibition, U87MG; assay type: cell-based; conditions: Homo sapiens, U-87 MG, Glioma
primary T-ALL tumors = experiment: Viability of primary T-ALL tumors; assay type: cell-based, human; conditions: 1.0, 2.5, and 5.0 μM, 72 hours
Experimental: Cryopreserved samples from the Columbia Presbyterian Hospital, the Erasmus MC-Sophia Children's Hospital, and the University of Padua were used. All samples were collected with informed consent and supervised by the institutes' review boards and the Acute Lymphoblastic Leukemia Strategic Scientific Committee.
as §2, with “Calif.). […]” for “Calif.).”

SF-295 = experiment: pAkt pathway inhibition, SF-295; assay type: cell-based; conditions: Homo sapiens; SF-295, CNS
Solid tumor = experiment: Cellular viability, solid tumor; assay type: cell-based; conditions: N = 14
Experimental: as §2, §1

MDA-MB-468 = experiment: pAkt pathway inhibition, MDA-MB-468; assay type: cell-based; conditions: Homo sapiens; MDA-MB-468, Breast
786-0 = experiment: Viability (AlamarBlue), 786-0; assay type: cell-based; conditions: Homo sapiens; 786-0, Renal
Experimental: as §2

[1] = system: pAkt in T Cell Malignancies; experiment: pAkt activity, T cell malignancies; assay type: cell-based; conditions: N = 7
Excerpt: as §1

PI3K p110α = PI3K p110α (Mus musculus, UniProt P42337); experiment: Cellular p110α signaling: PDGF-stimulated MEFs, pAkt Western blot; assay type: cell-based, murine
PI3K p110α, sequence (P42337 whole entry): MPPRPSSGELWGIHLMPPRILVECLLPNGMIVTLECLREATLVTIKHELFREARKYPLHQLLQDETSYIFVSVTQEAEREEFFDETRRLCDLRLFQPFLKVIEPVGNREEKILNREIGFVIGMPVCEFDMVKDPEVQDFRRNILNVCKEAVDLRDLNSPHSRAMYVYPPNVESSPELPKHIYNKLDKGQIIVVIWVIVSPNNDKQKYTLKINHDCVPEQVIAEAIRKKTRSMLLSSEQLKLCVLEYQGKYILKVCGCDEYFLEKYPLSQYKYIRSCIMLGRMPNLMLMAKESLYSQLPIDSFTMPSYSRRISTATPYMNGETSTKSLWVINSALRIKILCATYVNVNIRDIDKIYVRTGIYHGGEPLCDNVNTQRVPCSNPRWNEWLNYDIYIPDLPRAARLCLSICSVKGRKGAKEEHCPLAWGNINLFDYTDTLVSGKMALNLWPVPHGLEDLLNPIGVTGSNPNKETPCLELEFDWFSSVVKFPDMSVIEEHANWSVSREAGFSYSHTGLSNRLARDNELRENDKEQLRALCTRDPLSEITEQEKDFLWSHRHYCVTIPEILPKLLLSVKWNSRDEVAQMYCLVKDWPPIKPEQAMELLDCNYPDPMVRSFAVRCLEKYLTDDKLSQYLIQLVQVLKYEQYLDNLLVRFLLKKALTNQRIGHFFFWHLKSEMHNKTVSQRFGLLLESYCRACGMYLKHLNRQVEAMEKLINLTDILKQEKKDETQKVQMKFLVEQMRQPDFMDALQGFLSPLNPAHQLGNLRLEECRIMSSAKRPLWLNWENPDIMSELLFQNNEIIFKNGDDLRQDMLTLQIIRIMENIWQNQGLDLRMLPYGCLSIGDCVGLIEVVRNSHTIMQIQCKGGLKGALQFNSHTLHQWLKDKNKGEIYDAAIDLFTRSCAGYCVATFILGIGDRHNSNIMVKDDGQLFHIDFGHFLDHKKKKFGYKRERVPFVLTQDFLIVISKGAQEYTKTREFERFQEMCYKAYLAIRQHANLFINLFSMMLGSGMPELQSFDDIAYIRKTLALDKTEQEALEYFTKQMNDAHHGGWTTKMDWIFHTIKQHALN
PI3K p110α, sequence (P26450 whole entry partner): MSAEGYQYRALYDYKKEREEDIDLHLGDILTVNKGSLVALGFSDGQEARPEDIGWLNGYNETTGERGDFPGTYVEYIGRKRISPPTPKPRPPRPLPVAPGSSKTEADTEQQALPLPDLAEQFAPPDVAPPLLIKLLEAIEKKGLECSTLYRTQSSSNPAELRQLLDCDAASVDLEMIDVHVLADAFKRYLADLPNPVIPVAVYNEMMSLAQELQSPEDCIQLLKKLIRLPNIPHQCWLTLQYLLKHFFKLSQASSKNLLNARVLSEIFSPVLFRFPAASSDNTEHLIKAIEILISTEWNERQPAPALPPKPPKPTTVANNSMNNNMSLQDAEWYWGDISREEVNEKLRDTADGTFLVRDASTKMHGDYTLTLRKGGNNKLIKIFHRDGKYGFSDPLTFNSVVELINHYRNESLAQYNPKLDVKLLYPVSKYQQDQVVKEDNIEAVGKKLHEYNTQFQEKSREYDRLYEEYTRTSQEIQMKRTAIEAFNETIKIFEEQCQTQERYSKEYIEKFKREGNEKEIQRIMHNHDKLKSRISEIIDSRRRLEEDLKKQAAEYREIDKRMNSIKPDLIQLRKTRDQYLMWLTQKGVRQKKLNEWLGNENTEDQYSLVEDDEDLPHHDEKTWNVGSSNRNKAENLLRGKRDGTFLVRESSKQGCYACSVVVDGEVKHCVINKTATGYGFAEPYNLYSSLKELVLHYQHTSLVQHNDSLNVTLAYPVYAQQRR
Experimental: To analyze PI3K p110α and p110β signaling, murine embryo fibroblast (MEFs) were removed from FBS and starved for 2 hours followed by stimulation with 10 ng/mL of PDGF (Cell Signaling Technologies, Danvers, Mass.) or 10 μM of LPA (Echelon, Salt Lake City, Utah) for 10 minutes at 37° C., respectively. After washing once in cold phosphate-buffered saline (PBS), the cell pellet was resuspended in 1× cell lysis buffer (Cell Signaling Technologies) supplemented with mini protease inhibitor mix (Roche, Indianapolis, Ind.), phosphate inhibitor cocktail set I and II (Calbiochem, San Diego, Calif.) for 15 minutes on ice. Whole-cell lysates were obtained by centrifugation at 16,000 g for 10 minutes at 4° C., and the soluble protein was analyzed by Western blotting for Akt and pAkt levels. To analyze PI3K p110δ and p110γ signaling, basophil activation was measured in isolated PBMC or whole blood using the Flow2 CAST kit according to the manufacture's standardized methods (Buhlman Laboratories AG, Switzerland). Briefly, p110δ was activated with anti-FCεRI and p110γ was activated with fMLP (2 μM) in the absence or presence of compounds. To monitor the basophil cell population and cellular activation, anti-CD63-FITC and anti-CCR3-PE antibodies were added to each sample. Cells were fixed and analyzed on a FC500 MPL flow cytometer (Beckman Coulter, Brea, Calif.).

U251 = experiment: pAkt pathway inhibition, U251; assay type: cell-based; conditions: Homo sapiens, U-251; U251, Glioma
LN18 = experiment: Viability (AlamarBlue), LN18; assay type: cell-based; conditions: Homo sapiens, LN-18; LN18, Glioma
Experimental: as §2

[2] = In vivo PK (cannulated rat, IV and PO); conditions: for half-life: read-out: T½ (converted)
LNCaP = experiment: Viability (AlamarBlue), LNCaP; assay type: cell-based; conditions: Homo sapiens, Prostate
Experimental: as §2

[3] = IV 1 mg/kg, individual rats, 1 mg/kg
[4] = rat, plasma, iv, 1 mg/kg, IV 1 mg/kg, individual rats
[5] = rat, plasma, iv, 1 mg/kg, IV 1 mg/kg, mean of 3 rats
[6] = rat, plasma, po, 3 mg/kg, PO 3 mg/kg, individual rats
[7] = rat, plasma, po, 3 mg/kg, PO 3 mg/kg, mean of 3 rats
[8] = rat, plasma, po, 30 mg/kg, PO 30 mg/kg, individual rats
[9] = rat, plasma, po, 30 mg/kg, PO 30 mg/kg, mean of 3 rats

CC(Nc1ncnc2[nH]cnc12)c1nc2cccc(Cl)c2c(=O)n1-c1ccccc1 (centres unmarked) [Compound A, 2-(1-(9H-purin-6-ylamino)ethyl)-5-chloro-3-phenylquinazolin-4(3H)-one]
EC50 (T Cell Malignancies): 2400 nM
GI50 (LN229): 3000 nM
EC50 (U87MG): 17 nM
viability of tumor cells (primary T-ALL tumors): reduced viability
EC50 (SF-295): 162 nM
EC50 (Solid tumor): 1700 nM
EC50 (MDA-MB-468): 56 nM
GI50 (786-0): 5 µM
EC50 [1]: 310 nM
EC50 (PI3K p110α): 6 µM
EC50 (U251): 2250 nM
GI50 (LN18): 3.5 µM
Vss [2, 3]: 1320 mL/kg and 1674 mL/kg
Vz [2, 3]: 5849 mL/kg and 1768 mL/kg
Bioavailability ([2]; PO 3 mg/kg, individual rats (Rat 1, 2, 3), 3 mg/kg): 81% and 37%
Cmax ([2]; PO 3 mg/kg, individual rats, 3 mg/kg): 457 ng/mL and 345 ng/mL
Bioavailability ([2]; PO 30 mg/kg, individual rats (Rat 4, 5, 6), 30 mg/kg): 138% and 128% and 87%
Cmax ([2]; PO 30 mg/kg, individual rats, 30 mg/kg): 5770 ng/mL and 4320 ng/mL
AUC ([2]; plasma, Rat, PO 3 mg/kg (Table 4)): 2000 ng·h/mL
clearance ([2]; rat, plasma, iv, 1 mg/kg, IV 1 mg/kg (Table 4)): 15.2 mL/min/kg
AUC(0-inf) [2, 4]: 1050 ng·h/mL
AUC(0-t) [2, 4]: 1040 ng·h/mL
Vd ([2]; rat, plasma, iv, 1 mg/kg, IV 1 mg/kg, individual rats, read-out: Vss): 2.64 L/kg
AUC(0-inf) [2, 5]: 1130 ng·h/mL
AUC(0-t) [2, 5]: 1100 ng·h/mL
Vd ([2]; rat, plasma, iv, 1 mg/kg, IV 1 mg/kg, mean of 3 rats, read-out: Vss): 1.88 L/kg
Vd ([2]; rat, plasma, iv, 1 mg/kg, IV 1 mg/kg, mean of 3 rats, read-out: Vz): 2.99 L/kg
Vd ([2]; rat, plasma, iv, 1 mg/kg, Rat, IV 1 mg/kg (Table 4), read-out: Vz): 2.99 L/kg
Tmax ([2]; rat, plasma, po, 3 mg/kg, PO 3 mg/kg (Table 4)): 1.3 h
Tmax [2, 6]: 1 h
Cmax ([2]; rat, plasma, po, 3 mg/kg, PO 3 mg/kg, individual rats, read-out: Cmax): 568 ng/mL
half-life [2, 6]: 174 min
AUC(0-inf) [2, 7]: 2010 ng·h/mL
AUC(0-t) [2, 7]: 2000 ng·h/mL
Bioavailability ([2]; rat, plasma, po, 3 mg/kg, PO 3 mg/kg, mean of 3 rats, read-out: Bioavailability): 59%
Cmax ([2]; rat, plasma, po, 3 mg/kg, PO 3 mg/kg, mean of 3 rats, read-out: Cmax): 456 ng/mL
Cmax ([2]; rat, plasma, po, 3 mg/kg, Rat, PO 3 mg/kg (Table 4), read-out: Cmax): 456 ng/mL
AUC(0-inf) [2, 8]: 46800 ng·h/mL
Tmax [2, 8]: 4 h
Cmax ([2]; rat, plasma, po, 30 mg/kg, PO 30 mg/kg, individual rats, read-out: Cmax): 5800 ng/mL
half-life [2, 8]: 136 min
AUC(0-inf) [2, 9]: 40000 ng·h/mL
AUC(0-t) [2, 9]: 40000 ng·h/mL
Bioavailability ([2]; rat, plasma, po, 30 mg/kg, PO 30 mg/kg, mean of 3 rats, read-out: Bioavailability): 118%
Cmax ([2]; rat, plasma, po, 30 mg/kg, PO 30 mg/kg, mean of 3 rats, read-out: Cmax): 5300 ng/mL
time at which plasma levels peaked after administration ([2]; rats, single dose, over a period of 24 hours (data not shown)): 2 to 4 h
GI50 (LNCaP): 220 nM

From patent US20130143902A1, “COMPOSITIONS AND METHODS OF TREATING A PROLIFERATIVE DISEASE WITH A QUINAZOLINONE DERIVATIVE” (GILEAD CALISTOGA LLC, priority 2011, published 2013)
